Earlier results as cited in patent US4978531A, “Clebopride transdermal patch” (Fordonal, S.A., priority 1987, dated 1990).

Conditions: in vivo

COc1cc(N)c(Cl)cc1C(=O)NC1CCN(Cc2ccccc2)CC1 [clebopride]
biological half-life: about 1.5 hours
